Measured values reported in patent publication US5866574A, “Pancreatitis remedy” (Kyowa Hakko Kogyo Co., Ltd., priority 1997, dated 1999).
Where a name gives a salt, the structure may show the parent alone.

Assays:
[1] = system: murine cerulein pancreatitis; assay: effects on murine cerulein pancreatitis (serum amylase, lipase, GPT); type: in vivo, murine (female BALB/C mice); details: mean±SEM
Method: Test of the effects on murine cerulein pancreatitis
Experiment was conducted in accordance with the method described in Digestive Diseases and Science, 37, 274-279 (1992). Female BALB/C mice weighing 17 to 24 g were fasted for 16 hours. Water was provided ad libitum. Acute pancreatitis was induced by the administration of seven intraperitoueally injections of cerulein (50 μg/kg) at hourly intervals. Blood was drawn from abdominal vein, 3, 6, and 9 hours after the first injection of cerulein in case of Compound 1, Compound 2 and compound 3, while in case of Compound 4, blood was drawn therefrom 7 hours after the first injection of cerulein. Blood samples were centrifuged at 4° C. and 3,000 rpm for 10 minutes, and serum was separated. Serum amylase (Amy), lipase (Lip), and glutamic pyruvic transaminase (GPT) activities were measured. For Compound 1, Compound 2 and Compound 3, serum Amy was assayed with AU500/550 specific reagent "Katayama" Amy test(Katayama Chemical Industry Co., Ltd.); for Compound 4, serum Amy was assayed with "Rikitech P-AMY EPS" of BM pancreas-related reagent series (Boehringer Mannheim K. K.). Serum GPT was assayed with "Katayama" GPT test (Katayama Chemical Industry, Co., Ltd.). Serum Lip was assayed with an auto-analyzer reagent "Kyowa" Determiner Lipase (Kyowa Medex, Co., Ltd.). Compound 1, Compound 2, and Compound 3 were suspended in 0.5% methyl cellulose, and […] before the first injection of cerulein, the resulting suspension was orally given at a dose of 10 ml/kg. The solvent (0.5% methyl cellulose) was similarly given to a control group. Compound 4 was dissolved in distilled water, which was adjusted to pH 2 with 0.1N HCl, and then the resulting solution was adjusted to pH 4.5 with 0.1N sodium hydroxide. Compound 4 was orally administered one hour before the first injection of cerulein. The solvent (distilled water for injections, after adjustment to pH 4.5 with 0.1N HCl) was similarly given to a control group.
Results are expressed as means±SEM where appropriate. Difference between normal group and control group were evaluated using the Wilcoxon's rank sum test. And for differences between control group and test compound-treated group, the Steel's test was used for Compound 1 and the Wilcoxon's rank sum test was used for Compounds 2, Compound 3 and Compound 4.
The effects of Compound 1, Compound 2 and Compound 3 on serum Amy, serum Lip and serum GPT are shown in Tables 2, 3 and 4; and the effect of Compound 4 are shown in Table 5.

adenosine uptake = details: Nucleosides & Nucleotides, 10, 975-982 (1991); cited from earlier work
dd-strain male mice = assay: Acute Toxicity Test; type: in vivo; details: mortality seven days after administration
Source text: Test compounds were orally or intraperitoneally administered to groups of dd-strain male mice weighing 20±1 g, each group consisting of three mice.

[2] = 10 mg/kg oral, 7 hours after the first injection of cerulein
[3] = 30 mg/kg oral, 3 h after the first injection of cerulein
[4] = 30 mg/kg oral, 6 h after the first injection of cerulein
[5] = 30 mg/kg oral, 9 h after the first injection of cerulein
[6] = 10 mg/kg oral, 3 h after the first injection of cerulein
[7] = 10 mg/kg oral, 6 h after the first injection of cerulein
[8] = 10 mg/kg oral, 9 h after the first injection of cerulein
[9] = 300 mg/kg oral, 3 h after the first injection of cerulein
[10] = 300 mg/kg oral, 6 h after the first injection of cerulein
[11] = 300 mg/kg oral, 9 h after the first injection of cerulein

With `CCOc1cc2c(N3CCC(n4c(=O)c5cc(C)ccc5n(C)c4=O)CC3)nc(N3CCOCC3)nc2cc1OCCO` [Compound 4, 3-[1-[6-ethoxy-7-(2-hidroxyethyl)oxy-2-morpholino-4-quinazolynyl]-4-piperidinyl]-1,2,3,4-tetrahydro-1,6-dimethyl-2,4-dioxoquinazoline] the “Serum Amirase” value ([1]; 10 mg/kg oral, 7 hours after the first injection of cerulein, P-AMY assay) was 14690 ± 922 IU/l, the “Serum GPT” value [1, 2] was 67 ± 2 IU/l and the “Serum lipase” value [1, 2] was 195 ± 23 IU/l.
For `NC(=O)C1CN(Cc2nc(-c3ccccc3)c(-c3ccccc3)o2)CCN1CC(=O)Nc1c(Cl)cc([N+](=O)[O-])cc1Cl` (stereo not drawn) [Compound 3, 2-Aminocarbonyl-N-(2,6-dichloro-4-nitrophenyl)-4-[(4,5-diphenyl-2-oxazolyl)methyl]-1-piperazine acetamide . dihydrochloride salt], the “Serum GPT” value [1, 3] was 64 ± 11 IU/L, the Serum amylase [1, 3] was 4050 ± 309 IU/L and the Serum lipase [1, 3] was 243 ± 40 IU/L. For the same molecule, the “Serum GPT” value [1, 4] was 40 ± 1 IU/L, the Serum amylase [1, 4] was 3733 ± 149 IU/L and the Serum lipase [1, 4] was 135 ± 6 IU/L. The “Serum GPT” value [1, 5] was 59 ± 7 IU/L, the Serum amylase [1, 5] was 3958 ± 146 IU/L and the Serum lipase [1, 5] was 200± 13 IU/L.
In the case of `Cc1cccc(C)c1NC(=O)CN1CCN(CCCC(c2ccc(F)cc2)c2ccc(F)cc2)CC1` [lidoflazine], the “action of inhibiting adenosine uptake” value (adenosine uptake) is listed as “have an action of inhibiting adenosine uptake”.
With `CCOc1cc2nc(N3CCOCC3)nc(N3CCC(n4c(=O)c5cc(C)ccc5n(C)c4=O)CC3)c2cc1OCC` [Compound 1, 3-[1-(6,7-Diethoxy-2-morpholino-4-quinazolynyl)-4-piperidinyl]-1,2,3,4-tetrahydro-1,6-dimethyl-2,4-dioxoquinazoline hydrochloride salt] the “Serum GPT” value [1, 6] was 37 ± 3 IU/L, the Serum amylase [1, 6] was 4283 ± 245 IU/L and the Serum lipase [1, 6] was 55 ± 3 IU/L. For the same molecule, the “Serum GPT” value [1, 7] was 50 ± 3 IU/L, the Serum amylase [1, 7] was 4967 ± 167 IU/L and the Serum lipase [1, 7] was 91 ± 22 IU/L. For the same molecule, the “Serum GPT” value [1, 8] was 76 ± 5 IU/L, the Serum amylase [1, 8] was 14817 ± 1459 IU/L and the Serum lipase [1, 8] was 466 ± 74 IU/L. The “Serum GPT” value [1, 3] was 32 ± 3 IU/L, the Serum amylase [1, 3] was 4133 ± 264 IU/L and the Serum lipase [1, 3] was 58 ± 5 IU/L. The “Serum GPT” value [1, 4] was 51 ± 6 IU/L, the Serum amylase [1, 4] was 5200 ± 274 IU/L and the Serum lipase [1, 4] was 81 ± 8 IU/L. For the same molecule, the “Serum GPT” value [1, 5] was 52 ± 5 IU/L, the Serum amylase [1, 5] was 5658 ± 682 IU/L and the Serum lipase [1, 5] was 95 ± 15 IU/L. The “minimum lethal dose (MLD)” value (dd-strain male mice; intraperitoneal dosing) was “greater than 100 mg/kg” and the “minimum lethal dose (MLD)” value (dd-strain male mice; oral dosing) was “greater than 1000 mg/kg”.
For `OCCN(CCO)c1nc(N2CCCCC2)c2nc(N(CCO)CCO)nc(N3CCCCC3)c2n1` [dipyridamole], the “action of inhibiting adenosine uptake” value (adenosine uptake) is given as “have an action of inhibiting adenosine uptake”.
For `COc1cc(C(=O)OCCCN2CCCN(CCCOC(=O)c3cc(OC)c(OC)c(OC)c3)CC2)cc(OC)c1OC` [dilazep], the “action of inhibiting adenosine uptake” value (adenosine uptake) is given as “have an action of inhibiting adenosine uptake”.
In the case of `NC(=O)C1CN(CCCCC(c2ccc(F)cc2)c2ccc(F)cc2)CCN1CC(=O)Nc1c(Cl)cc(N)cc1Cl` (stereo not drawn) [Compound R75231], the “action of inhibiting adenosine uptake” value (adenosine uptake) is given as “have an action of inhibiting adenosine uptake”.
For `NC(=O)C1CN(CCCCC(c2ccc(F)cc2)c2ccc(F)cc2)CCN1CC(=O)Nc1c(Cl)cc(N)cc1Cl` (stereo not drawn) [Compound 2, 2-Aminocarbonyl-N-(4-amino-2,6-dichlorophenyl)-4-[5,5-bis(4-fluorophenyl)pentyl]-1-piperazine acetamide], the “Serum GPT” value [1, 9] was 55 ± 2 IU/L, the Serum amylase [1, 9] was 4967 ± 291 IU/L and the Serum lipase [1, 9] was 238 ± 9 IU/L. For the same molecule, the “Serum GPT” value [1, 10] was 59 ± 6 IU/L, the Serum amylase [1, 10] was 4417 ± 305 IU/L and the Serum lipase [1, 10] was 217 ± 51 IU/L. The “Serum GPT” value [1, 11] was 129 ± 23 IU/L, the Serum amylase [1, 11] was 9517 ± 23 IU/L and the Serum lipase [1, 11] was 726 ± 23 IU/L. For the same molecule, the “minimum lethal dose (MLD)” value (dd-strain male mice; intraperitoneal dosing) was “greater than 100 mg/kg” and the “minimum lethal dose (MLD)” value (dd-strain male mice; oral dosing) was “greater than 300 mg/kg”.
In the case of `COc1cc(C(=O)OCCCN(C)CCN(C)CCCOC(=O)c2cc(OC)c(OC)c(OC)c2)cc(OC)c1OC` [hexobendine], the “action of inhibiting adenosine uptake” value (adenosine uptake) is listed as “have an action of inhibiting adenosine uptake”.
